Patent publication US6808909B2, “Thermostable phytase with 2.1 Å . . . crystal structure” (Korea Research Institute of Bioscience and Biotechnology, priority 2000, dated 2004)

Biological target: T1, phytase derived from B. amyloliquefaciens DS-11 (Bacillus sp., UniProt O66037)
T1 construct: made in house; host or cells: Bacillus subtilis DB104/pJPK
Assay: Activity of the phytase on phytate and myo-inositol monophosphate substrates
Type: biochemical
Details: 2 mM substrate, 37° C. for 15 min, 20 mM Tris/HCl (pH7.0) buffer; relative to phytate = 100
Method: The activities of the phytase derived from B. amyloliquefaciens DS11 were measured on its 2 mM substrates of myo-inositol, hexaphosphate, mio-inositol 1-monophosphate, mio-inositol 2-monophosphate, myo-inositol 4-monophosphate, after incubating at 37° C. for 15 min in a 20 mM Tris/HCl (pH7.0) buffer.

T1 sequence (O66037 31-383): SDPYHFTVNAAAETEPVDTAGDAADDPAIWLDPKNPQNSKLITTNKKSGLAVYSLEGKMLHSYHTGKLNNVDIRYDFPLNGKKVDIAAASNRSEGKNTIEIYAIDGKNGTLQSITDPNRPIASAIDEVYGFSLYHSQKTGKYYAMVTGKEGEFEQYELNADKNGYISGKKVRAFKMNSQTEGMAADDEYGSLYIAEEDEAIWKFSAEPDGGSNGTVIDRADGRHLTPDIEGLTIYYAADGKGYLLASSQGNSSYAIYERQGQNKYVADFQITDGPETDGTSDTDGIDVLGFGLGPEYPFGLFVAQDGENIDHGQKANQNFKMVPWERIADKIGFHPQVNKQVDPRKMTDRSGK

| Structure (SMILES) | Relative Enzyme Activity (%) |
| --- | --- |
| O=P(O)(O)OC1[C@H](O)[C@H](O)C(O)[C@H](O)[C@H]1O (stereo partly shown) [1′-monophosphoinositol, mio-inositol 1-monophosphate] | 27% |
| O=P(O)(O)OC1[C@@H](O)[C@H](O)C(O)[C@H](O)[C@H]1O (stereo partly shown) [2′-monophosphoinositol, mio-inositol 2-monophosphate] | 28% |
| O=P(O)(O)OC1[C@@H](O)[C@@H](O)C(O)[C@H](O)[C@H]1O (stereo partly shown) [4′-monophosphoinositol, myo-inositol 4-monophosphate] | 40% |
| O=P(O)(O)O[C@H]1[C@H](OP(=O)(O)O)[C@@H](OP(=O)(O)O)[C@H](OP(=O)(O)O)[C@@H](OP(=O)(O)O)[C@H]1OP(=O)(O)O [Phytate, myo-inositol, hexaphosphate] | 100% |
